In one experiment the target is wild-type HIV-1 protease (Human immunodeficiency virus type 1 group M subtype B, UniProt P04585). The experiment is described as follows: Assay for inhibition of microbial expressed HIV protease. The format is biochemical. As to the method:
Assay for Inhibition of Microbial Expressed HIV Protease
Inhibition studies of the reaction of the protease (which was expressed in Eschericia coli) with a peptide substrate [Val-Ser-Gln-Asn-(betanapthyl)Ala-Pro-Ile-Val]. The inhibitor is first preincubated with the enzyme in assay buffer (50 mM sodium acetate, pH 5.5, 100 mM NaCl, and 0.1% BSA) for 30 minutes at room temperature. Substrate is added to 440 micromolar in a total volume of 80 microliters containing 5 picomolar HIV-1 protease, and the reaction is incubated for 1 hour at 30° C. The reaction is quenched by addition of 120 microliters of 10% phosphoric acid, and product formation is determined after separation of product and substrate on a Vydac C18 column connected to an Alliance high performance liquid chromatography system (Waters Corporation). The extent of inhibition of the reaction is determined from the peak area of the products.

In experiment [1] the test system is acute HIV infection of T-lymphoid cells. The experiment is described as follows: Assay for inhibition of HIV replication (spread assay). The format is cell-based, HIV-1. The following applies: Human immunodeficiency virus 1, T-lymphoid; read-out: Spread - IC95. As to the method:
• Assay for Inhibition of HIV Replication
Assays for the inhibition of acute HIV infection of T-lymphoid cells were conducted in accordance with Vacca, J. P. et al., Proc. Natl. Acad. Sci. USA 1994, 91: 4096.

Setting [2] is: wild-type HIV-1 protease expressed in E. coli, peptide substrate, pH 5.5, read-out: Enzyme Inhibition - IC50.

By pIC50 is commonly meant the IC50 on a negative log10 scale, so that one unit is a factor of ten. In general, IC95 refers to the point of the concentration-response curve where the effect stands at 95%.

pIC50: −log10 of the molar value. Structures can show the parent of a compound that is named as a salt. Where two headings read alike, the source gives them in different places.

On to `COC(=O)N[C@H](C(=O)N[C@@H](C)CCC[C@@H](CO)N(CC(C)C)S(=O)(=O)c1ccc(CO)cc1)C(c1ccccc1)c1ccccc1` [Example G16, N-{(1S,5S)-6-hydroxy-5-[{[4-(hydroxymethyl)phenyl]sulfonyl}(isobutyl)amino]-1-methylhexyl}-Nα-(methoxycarbonyl)-β-phenyl-L-phenylalaninamide], for which the pIC50 at wild-type HIV-1 protease (setting [2]) is 11.00. In addition, in experiment [1], the IC95 amounted to 8 nM.
At wild-type HIV-1 protease, `CC[C@@H](CCC[C@@H](CO)N(CC(C)C)S(=O)(=O)c1ccc(CO)cc1)NC(=O)[C@@H](NC)C(c1ccccc1)c1ccccc1` [Example J24, N-{(1S,5S)-1-ethyl-6-hydroxy-5-[{[4-(hydroxymethyl)phenyl]sulfonyl}(isobutyl)amino]hexyl}-Nα-methyl-β-phenyl-L-phenylalaninamide hydrochloride] showed a pIC50 of 10.26. The IC95 in experiment [1] stood at 16 nM.
Consider `CC(C)CCN([C@@H](CCCCNC(=O)[C@@H](N)C(c1ccccc1)c1ccccc1)C(C)O)S(=O)(=O)c1ccc(N)cc1` (mixture of isomers) [Example A1, (2S)-2-amino-N-{5-[[(4-aminophenyl)sulfonyl]-(3-methylbutyl)amino]-6-hydroxyheptyl}-3,3-diphenylpropanamide], for which the pIC50 at wild-type HIV-1 protease (setting [2]) was 9.37. Besides, the concentration for an effect of 95% (IC95) in experiment [1] was 140 nM.
Regarding `C=C[C@H](CCC[C@@H](CO)N(CCC(C)C)S(=O)(=O)c1ccc(CO)cc1)NC(=O)[C@@H](NC(=O)OC)C(c1ccccc1)c1ccccc1` [Example J11, N-{(1S,5S)-6-hydroxy-5-[{[4-(hydroxymethyl)phenyl]sulfonyl}(3-metbylbutyl)amino]-1-vinylhexyl}-Nα-(methoxycarbonyl)-β-phenyl-L-phenylalaninamide], the pIC50 on wild-type HIV-1 protease (setting [2]) was 9.73. Also, the IC95 in experiment [1] came out at 107 nM.
On to `CCC(CCC[C@@H](CO)N(CCC(C)C)S(=O)(=O)c1ccc(N)cc1)NC(=O)[C@H](C(c1ccccc1)c1ccccc1)N(C)C(=O)OC` (mixture of isomers) [Example F12, N{(5S)-5-[[(4-aminophenyl)sulfonyl](3-methylbutyl)amino]-1-ethyl-6-hydroxyhexyl}-Nα-(methoxycarbonyl)-Nα-methyl-β-phenyl-L-phenylalaninamide], for which the pIC50 on wild-type HIV-1 protease (setting [2]) was 8.68. Moreover, in experiment [1], the IC95 amounted to 325 nM.
For `CCN([C@H](CO)CCC[C@@H](NC(=O)[C@@H](NC(=O)OC)C(c1ccccc1)c1ccccc1)C1CC1)S(=O)(=O)c1ccc(CO)cc1` [Example I5, N-[(1R,5S)-1-cyclopropyl-5-(ethyl{[4-(hydroxymethyl)phenyl]sulfonyl}amino)-6-hydroxyhexyl]-Nα-(methoxycarbonyl)-β-phenyl-L-phenylalaninamide], in that order: 10.96 and 85 nM.
Consider `CCN([C@H](CO)CCC[C@H](C)NC(=O)[C@@H](NC(=O)OC)C(c1ccccc1)c1ccccc1)S(=O)(=O)c1ccc(CO)cc1` [Example G1, N-[(1S,5S)-5-(ethyl{[4-(hydroxymethyl)phenyl]sulfonyl}amino)-6-hydroxy-1-methylhexyl]-Nα-(methoxycarbonyl)-β-phenyl-L-phenylalaninamide], for which the pIC50 at wild-type HIV-1 protease (setting [2]) was 10.30. Moreover, the IC95 in experiment [1] was found to be 37 nM.
For `CC[C@@H](CCC[C@@H](CO)N(C(C)C)S(=O)(=O)c1ccc(CO)cc1)NC(=O)[C@@H](N)C(c1ccccc1)c1ccccc1` [Example J36, N-{(1S,5S)-1-ethyl-6-hydroxy-5-[{[4-(hydroxymethyl)phenyl]sulfonyl}(isopropyl)amino]hexyl}-β-phenyl-L-phenylalaninamide], in that order: 10.01 and 27 nM.
As for `COC(=O)N[C@H](C(=O)N[C@@H](C)CCC[C@@H](CO)N(C(C)C)S(=O)(=O)c1ccc(N)cc1)C(c1ccccc1)c1ccccc1` [Example F1, N-{(1S,5S)-5-[[(4-aminophenyl)sulfonyl](isopropyl)amino]-6-hydroxy-1-methylhexyl}-Nα-(methoxycarbonyl)-β-phenyl-L-phenylalaninamide], the IC95 in experiment [1] worked out at 32 nM.

Source of the values: patent US20100093811A1 (priority 2007, published 2010).
